In ChEMBL document CHEMBL1201862, “PubChem BioAssay data set” (2004):
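A five-concentration, 48-hour dose response in 96-well plates underlies each endpoint, interpolated linearly between surrounding concentrations. Here, GI50 denotes the concentration required for 50% inhibition of growth.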 The source made the active and inactive calls. No stated cut-off is given here; in the data, active = GI50 up to about 1.1 µM and inactive = higher.

What was measured:
Experiment in all cases: NCI anticancer screen, dose series, 48 h
SK-MEL-2 = test system: SK-MEL-2
PC-3 = test system: PC-3
OVCAR-5 = test system: OVCAR-5
Hs-578T = test system: Hs-578T
KM12 = test system: KM12
HCC 2998 = test system: HCC 2998
MDA-N = test system: MDA-N
DU-145 = test system: DU-145
MDA-MB-231 = test system: MDA-MB-231
786-0 = test system: 786-0
UACC-257 = test system: UACC-257
CAKI-1 = test system: CAKI-1
NCI/ADR-RES = test system: NCI/ADR-RES
CCRF-CEM = test system: CCRF-CEM
RPMI-8226 = test system: RPMI-8226
NCI-H226 = test system: NCI-H226
NCI-H522 = test system: NCI-H522
Malme-3M = test system: Malme-3M
A498 = test system: A498

Measured: GI50

COc1ccc(C(=O)/C=C/c2ccc(OCCCOc3ccc(/C=C/C(=O)c4ccc(OC)cc4)cc3)cc2)cc1
inactive: SK-MEL-2 > 100 µM | PC-3 > 100 µM | OVCAR-5 > 100 µM | Hs-578T > 100 µM | KM12 91.2 µM | HCC 2998 > 100 µM | MDA-N > 100 µM | DU-145 > 100 µM | MDA-MB-231 > 100 µM | 786-0 > 100 µM | UACC-257 > 100 µM | CAKI-1 > 100 µM | NCI/ADR-RES > 100 µM | CCRF-CEM > 100 µM | RPMI-8226 21.8 µM | NCI-H226 > 100 µM

COP(=O)(OC)C(O)/C=C(\Cl)c1ccc(Cl)cc1 (configuration not stated)
inactive: SK-MEL-2 > 100 µM | PC-3 31.6 µM | OVCAR-5 > 100 µM | Hs-578T > 100 µM | KM12 > 100 µM | DU-145 > 100 µM | MDA-MB-231 43.8 µM | 786-0 19.2 µM | UACC-257 28.4 µM | CAKI-1 69.2 µM | NCI/ADR-RES 23.1 µM | CCRF-CEM 21.1 µM | RPMI-8226 25.6 µM | NCI-H522 49.1 µM | NCI-H226 > 100 µM | Malme-3M > 100 µM

c1coc(-c2nccc3c2[nH]c2ccccc23)c1
inactive: SK-MEL-2 > 100 µM | PC-3 > 100 µM | A498 > 100 µM | OVCAR-5 > 100 µM | Hs-578T > 100 µM | KM12 > 100 µM | HCC 2998 > 100 µM | MDA-N > 100 µM | DU-145 > 100 µM | MDA-MB-231 > 100 µM | 786-0 > 100 µM | UACC-257 > 100 µM | CAKI-1 > 100 µM | NCI/ADR-RES > 100 µM | CCRF-CEM > 100 µM | NCI-H522 > 100 µM | NCI-H226 29.1 µM | Malme-3M > 100 µM

O=C1/C(=C/c2cccs2)NC(=S)N1CN1CCOCC1
inactive: SK-MEL-2 > 100 µM | PC-3 > 100 µM | A498 42.9 µM | OVCAR-5 > 100 µM | Hs-578T > 100 µM | KM12 > 100 µM | MDA-N > 100 µM | DU-145 > 100 µM | MDA-MB-231 > 100 µM | 786-0 > 100 µM | UACC-257 29 µM | NCI/ADR-RES > 100 µM | CCRF-CEM > 100 µM | RPMI-8226 > 100 µM | NCI-H226 > 100 µM

O=C1c2ccccc2C(=O)C2NC(CCCCCSSCCCCCC3=NC4C(=O)c5ccccc5C(=O)C4N3)=NC12 (configuration not stated)
inactive: SK-MEL-2 > 100 µM | PC-3 > 100 µM | A498 23.7 µM | OVCAR-5 > 100 µM | Hs-578T 25.7 µM | KM12 80.9 µM | DU-145 > 100 µM | MDA-MB-231 96.2 µM | 786-0 28.8 µM | UACC-257 64.3 µM | CAKI-1 6.47 µM | NCI/ADR-RES > 100 µM | CCRF-CEM > 100 µM | RPMI-8226 > 100 µM | NCI-H522 15 µM | NCI-H226 > 100 µM

c1ccc(-c2cc(-c3cccs3)c(-c3cccs3)s2)cc1
inactive: A498 80.2 µM | OVCAR-5 > 100 µM | Hs-578T 70 µM | KM12 14.9 µM | HCC 2998 25 µM | MDA-N 14.6 µM | DU-145 64 µM | MDA-MB-231 29.9 µM | 786-0 50 µM | UACC-257 56.8 µM | CAKI-1 26.4 µM | NCI/ADR-RES 41.4 µM | CCRF-CEM 23.7 µM | RPMI-8226 31.8 µM | NCI-H522 26.5 µM | NCI-H226 > 100 µM
